Test [1] relates to native EPSPS from E. coli (wild type). Conditions: read-out: apparent Ki for glyphosate; cited from earlier work.
Test [2] concerns the target T1, P. hybrida EPSPS variant glypR (Gly-Ala, Pro-Ser) (Petunia hybrida, UniProt P11043, G173A/P178S).
T1 sequence (P11043 73-516 G173A/P178S): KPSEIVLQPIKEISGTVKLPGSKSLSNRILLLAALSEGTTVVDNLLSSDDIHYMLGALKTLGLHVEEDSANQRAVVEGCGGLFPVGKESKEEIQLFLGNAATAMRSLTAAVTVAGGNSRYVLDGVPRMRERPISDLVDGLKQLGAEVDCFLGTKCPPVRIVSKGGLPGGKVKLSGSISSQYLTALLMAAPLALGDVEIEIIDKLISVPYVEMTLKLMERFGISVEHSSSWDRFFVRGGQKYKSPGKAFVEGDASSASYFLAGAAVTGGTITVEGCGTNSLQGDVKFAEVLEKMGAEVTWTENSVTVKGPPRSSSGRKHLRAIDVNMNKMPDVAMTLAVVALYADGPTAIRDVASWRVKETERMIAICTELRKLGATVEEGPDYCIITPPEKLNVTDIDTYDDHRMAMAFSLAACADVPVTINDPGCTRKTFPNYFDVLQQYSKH
As to the kind of experiment: kinetic characterization of EPSP synthase (Table 4). The format is biochemical. The method, then: (§1) Final sample volumes are approximately 0.5 ml.

Test [3] has as its target T2, P. hybrida EPSPS variant glypR (Pro-Ser) (Petunia hybrida, UniProt P11043, P178S).
T2 sequence (P11043 73-516 P178S): T1 sequence (P11043 73-516 G173A/P178S) with A101G
The description is as above. The format is biochemical. The method, then:
as §1

Residue numbers refer to the chain shown, from its start.

`O=C(O)CNCP(=O)(O)O` [glyphosate, N-phosphonomethylglycine]: the Ki is 500 nM in test [1], 8.5 mM in test [2] and 3 µM in test [3].
